ChEMBL document CHEMBL4609996, “Discovery of a novel 2,3-dimethylimidazo[1,2-a]pyrazine-6-carboxamide M4 positive allosteric modulator (PAM) chemotype” (Bioorg Med Chem Lett, 2020)
Blank lines part the entries; values can stand above or below the compound they belong to.

Assays:
[1] = target: T1, Muscarinic acetylcholine receptor M4 (Homo sapiens, UniProt P08173); assay: Positive allosteric modulation of human muscarinic M4 receptor expressed in CHO cells co-expressing Gqi5 assessed as increase in acetylcholine-induced calcium mobilization; type: functional, cell-based
T1 sequence (P08173 whole entry): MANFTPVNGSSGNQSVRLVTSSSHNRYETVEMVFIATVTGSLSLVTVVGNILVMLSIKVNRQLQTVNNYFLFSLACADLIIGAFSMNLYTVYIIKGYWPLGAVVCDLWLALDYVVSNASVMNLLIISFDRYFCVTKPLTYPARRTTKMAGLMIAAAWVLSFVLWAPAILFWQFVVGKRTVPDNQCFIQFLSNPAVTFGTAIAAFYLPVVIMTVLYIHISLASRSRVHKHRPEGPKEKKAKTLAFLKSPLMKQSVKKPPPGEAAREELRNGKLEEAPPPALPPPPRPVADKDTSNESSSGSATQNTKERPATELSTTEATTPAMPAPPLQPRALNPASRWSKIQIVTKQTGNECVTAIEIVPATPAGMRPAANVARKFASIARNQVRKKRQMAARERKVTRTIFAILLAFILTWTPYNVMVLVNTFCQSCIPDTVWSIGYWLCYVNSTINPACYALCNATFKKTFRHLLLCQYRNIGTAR

[2] = Hepatic clearance in rat; type: ADME; conditions: in vivo
[3] = Unbound brain-to-plasma concentration ratio in rat; type: ADME, cell-free; conditions: read-out: K(p,uu,brain)
[4] = Unbound fraction in rat brain; type: ADME, tissue-based
[5] = Brain to plasma permeability coefficient, Kp of the compound in rat; type: ADME, cell-free
[6] = Hepatic clearance in human; type: ADME
[7] = Unbound fraction in human plasma; type: ADME, cell-free
[8] = Unbound fraction in rat plasma; type: ADME, cell-free
[9] = target: T2, Muscarinic acetylcholine receptor M4 (Rattus norvegicus, UniProt P08485); assay: Positive allosteric modulation of rat muscarinic M4 receptor
T2 sequence (P08485 whole entry): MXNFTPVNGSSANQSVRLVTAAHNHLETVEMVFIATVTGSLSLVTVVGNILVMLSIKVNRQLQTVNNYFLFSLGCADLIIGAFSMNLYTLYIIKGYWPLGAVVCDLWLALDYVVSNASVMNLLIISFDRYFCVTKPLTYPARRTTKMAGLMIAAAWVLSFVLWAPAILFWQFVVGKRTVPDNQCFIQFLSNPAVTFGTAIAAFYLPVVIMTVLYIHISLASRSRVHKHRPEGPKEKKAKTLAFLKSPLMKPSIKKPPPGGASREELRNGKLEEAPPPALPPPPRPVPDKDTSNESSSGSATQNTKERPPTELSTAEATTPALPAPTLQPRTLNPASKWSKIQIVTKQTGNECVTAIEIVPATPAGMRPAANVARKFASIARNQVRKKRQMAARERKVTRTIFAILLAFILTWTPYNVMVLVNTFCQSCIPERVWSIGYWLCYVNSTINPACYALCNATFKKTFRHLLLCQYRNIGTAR

[10] = Intrinsic clearance in rat microsomes; type: ADME, Microsome
[11] = Intrinsic clearance in human microsomes; type: ADME, Microsome

Structure (SMILES): Cn1nc2ccc(C(=O)NC3CN(c4cc(Cl)ncc4Cl)C3)cc2c1C1CC1
EC50 ([1]; cho): Not Active

Structure (SMILES): Cc1c2nc(C(=O)NC3CN(c4cc(Cl)ncc4Cl)C3)ccc2nn1C
EC50 ([1]; cho): Not Active

Structure (SMILES): COc1cc(N2CC(NC(=O)c3cc4c(C)n(C)nc4cn3)C2)c(Cl)cn1
Kp uu [3]: 0.97 | fraction unbound [4]: 0.032 | Kp [5]: 0.67 | EC50 [9]: 339 nM | CLint scaled [10]: 33 mL/min/kg | fraction unbound [7]: 0.017 | fraction unbound [8]: 0.022 | CLint scaled [11]: 28 mL/min/kg

Structure (SMILES): COc1cc(N2CC(NC(=O)c3ccc4sc(C)nc4c3)C2)c(Cl)cn1
EC50 ([1]; cho): Not Active

Structure (SMILES): COc1cc(N2CC(NC(=O)c3ccc4nnc(C)n4c3)C2)c(Cl)cn1
EC50 ([1]; read-out: EC50): > 10000 nM

Structure (SMILES): COc1cc(N2CC(NC(=O)c3ccc4onc(C)c4c3)C2)c(Cl)cn1
EC50 ([1]; cho): Not Active

Structure (SMILES): COc1cc(N2CC(NC(=O)c3ccc4nn(C)c(C)c4n3)C2)c(Cl)cn1
EC50 ([1]; cho): Not Active

Structure (SMILES): Cc1nnc2ccc(C(=O)NC3CN(c4cc(Cl)ncc4Cl)C3)cn12
EC50 ([1]; read-out: EC50): > 10000 nM

Structure (SMILES): Cn1nnc2ccc(C(=O)NC3CN(c4cc(Cl)ncc4Cl)C3)cc21
CLH [2]: 8.7 mL/min/kg | Kp uu [3]: < 0.11 | fraction unbound [4]: 0.053 | Kp [5]: < 0.05 | CLH [6]: 21 mL/min/kg | fraction unbound [7]: 0.132 | fraction unbound [8]: 0.024

Structure (SMILES): Cn1nc2ccc(C(=O)NC3CN(c4cc(Cl)ncc4Cl)C3)cc2c1C(F)F
EC50 ([1]; cho): Not Active

Structure (SMILES): CCn1nc2ccc(C(=O)NC3CN(c4cc(Cl)ncc4Cl)C3)cc2c1C
EC50 ([1]; cho): Not Active

Structure (SMILES): Cc1nc2ccc(C(=O)NC3CN(c4cc(Cl)ncc4Cl)C3)nn2c1C
EC50 ([1]; cho): Not Active

Structure (SMILES): COc1cc(N2CC(NC(=O)c3ccc4snc(C)c4c3)C2)c(Cl)cn1
EC50 ([1]; cho): Not Active

The remaining lines, values ahead:

EC50 ([1]; cho): Not Active
Structure (SMILES): COc1cc(N2CC(NC(=O)c3ccc4nc(C)c(C)n4n3)C2)c(Cl)cn1

EC50 ([1]; cho): Not Active
Structure (SMILES): Cc1nsc2ccc(C(=O)NC3CN(c4cc(Cl)ncc4Cl)C3)cc12

CLH [2]: 20 mL/min/kg | Kp uu [3]: 0.04 | fraction unbound [4]: 0.032 | Kp [5]: 0.05 | CLH [6]: 13 mL/min/kg | fraction unbound [7]: 0.043 | fraction unbound [8]: 0.042
Structure (SMILES): Cc1c2cc(C(=O)NC3CN(c4cc(Cl)ncc4Cl)C3)ccc2nn1C

EC50 ([1]; cho): Not Active
Structure (SMILES): Cc1noc2ccc(C(=O)NC3CN(c4cc(Cl)ncc4Cl)C3)cc12

EC50 ([1]; cho): Not Active
Structure (SMILES): Cn1nc2ccc(C(=O)NC3CN(c4cc(Cl)ncc4Cl)C3)cc2c1C(F)(F)F

EC50 ([1]; cho): Not Active
Structure (SMILES): COc1cc(N2CC(NC(=O)c3ccc4c(c3)c(C)nn4C)C2)c(Cl)cn1

Kp uu [3]: < 1.33 | fraction unbound [4]: 0.021 | Kp [5]: < 1.08 | EC50 [9]: 295 nM | CLint scaled [10]: 83 mL/min/kg | fraction unbound [7]: 0.045 | fraction unbound [8]: 0.017 | CLint scaled [11]: 25 mL/min/kg
Structure (SMILES): COc1cc(N2CC(NC(=O)c3cn4c(C)c(C)nc4cn3)C2)c(Cl)cn1

Kp uu [3]: < 0.45 | fraction unbound [4]: 0.021 | Kp [5]: < 0.24 | CLint scaled [10]: 85 mL/min/kg | fraction unbound [7]: 0.039 | fraction unbound [8]: 0.011 | CLint scaled [11]: 28 mL/min/kg
Structure (SMILES): Cc1nn(C)c2cnc(C(=O)NC3CN(c4cc(Cl)ncc4Cl)C3)cc12

Kp uu [3]: 1.09 | fraction unbound [4]: 0.034 | Kp [5]: 0.29 | EC50 [9]: 233 nM | CLint scaled [10]: 96 mL/min/kg | fraction unbound [7]: 0.04 | fraction unbound [8]: 0.009 | CLint scaled [11]: 33 mL/min/kg
Structure (SMILES): Cc1nc2cnc(C(=O)NC3CN(c4cc(Cl)ncc4Cl)C3)cn2c1C

Kp uu [3]: 0.21 | fraction unbound [4]: 0.027 | Kp [5]: 0.1 | EC50 [9]: 433 nM | CLint scaled [10]: 130 mL/min/kg | fraction unbound [7]: 0.03 | fraction unbound [8]: 0.013 | CLint scaled [11]: 39 mL/min/kg
Structure (SMILES): Cc1nc2ccc(C(=O)NC3CN(c4cc(Cl)ncc4Cl)C3)cn2c1C

Kp uu [3]: 0.41 | fraction unbound [4]: 0.03 | Kp [5]: 0.3 | EC50 [9]: 331 nM | CLint scaled [10]: 59 mL/min/kg | fraction unbound [7]: 0.014 | fraction unbound [8]: 0.022 | CLint scaled [11]: 26 mL/min/kg
Structure (SMILES): Cc1c2cc(C(=O)NC3CN(c4cc(Cl)ncc4Cl)C3)ncc2nn1C

EC50 [9]: 378 nM
Structure (SMILES): Cn1c(C(F)(F)F)nc2ccc(C(=O)NC3CN(c4cc(Cl)ncc4Cl)C3)cc21

EC50 ([1]; cho): Not Active
Structure (SMILES): Cc1c2cc(F)c(C(=O)NC3CN(c4cc(Cl)ncc4Cl)C3)cc2nn1C

EC50 ([1]; cho): Not Active
Structure (SMILES): COc1cc(N2CC(NC(=O)c3cc4nn(C)c(C)c4cc3F)C2)c(Cl)cn1
